Each block holds one compound with its values, some of them ahead of it.
Experiments:
[1] = Tarnish-monitoring experiments in a dishwasher, monitors visually ranked 0 to 6 against the Example 1 reference scale
Procedure: The wash program consisted of a pre-wash at 40°C, a mainwash at 55°C, two intermediate rinses, and a final rinse at 65°C.
The mainwash pH with these compositions was typically 8.7. Silver-plated spoons (2 per run) were the monitors used in the test. The spoons were supplied by Oneida Silversmiths, USA. The monitors were washed in a commercially available hand dishwash liquid and rinsed with deionized water and acetone before use. In the dishwasher the monitors were kept apart from each other in the cutlery basket. At the end of a single-run machine program, the monitors were visually analyzed for the presence of colours and the loss of gloss.
This ranking of spoons was used as a reference scale for all subsequent Examples.

[2] = Tarnish-monitoring experiments in a dishwasher with varied bleaching agent and mainwash pH, visual evaluation against the Example 1 reference scale; settings: for reduction of tarnishing: pH 7.5 (peracetic acid 4.12%); for reduction in tarnishing: pH 10.5 (sodium hypochlorite 8.23%)
Procedure: (§1) Tarnishing-monitoring experiments were conducted, using samples A, B, C, D, E, and F at a product dosage of 40 grams per run in a Bauknecht GSF 3162 dishwasher, with an intake of 5 litres water. The mainwash pH values for compositions A and B were adjusted to 7.5; the mainwash pH values for compositions C and D were adjusted to 8.5. Two experiments (each) were conducted, using compositions E and F; the mainwash pH values were adjusted to 9.0 and 10.5, respectively. Silver-plated spoons, knives, and forks (supplied by Oneida Silversmiths, USA), were used as monitors for all experiments. The monitors were washed in a commercially available hand dishwashing liquid and rinsed with deionized water and acetone before use. At the end of the dishwashing machine program, the monitors were visually evaluated for the presence of colours and/or loss of shine, according to the reference scale described in Example 1.
as §1, with “Tarnish monitoring” for “Tarnishing-monitoring”, “conducted” for “conducted,”, “compositions” for “samples”, “D E” for “D, E,”, “available” for “available hand”
Tarnish monitoring experiments were conducted using compositions A, B, C, D, E and F at a product dosage of 40 grams per run in a Bauknecht GSF 3162 dishwasher, with an intake of 5 litres water. The mainwash pH values for compositions A and B were adjusted to 7.5; the mainwash pH values for compositions C and D were adjusted to 8.5. Two experiments (each) were conducted using compositions E and F; the mainwash pH values were adjusted to 9.0 and 10.5. respectively. Silver-plated spoons, knives and forks (supplied by Oneida Silversmiths, USA), were used as monitors for all experiments. The monitors were washed in a commercially available dishwashing liquid and rinsed with deionized water and acetone before use. At the end of the dishwashing machine program, the monitors were visually evaluated for the presence of colours and/or loss of shine, according to the reference scale described in Example 1.

[3] = Silver plates held in the compositions for 25 minutes, evaluated for tarnishing; settings: 4 wt.% epsilon-phthalimido peroxyhexanoic acid
Procedure: (§2) A comparison of anti-tarnishing performance of purine class compounds within the scope of the invention and azole compounds outside the invention was conducted. The selected compounds were incorporated in an amount of 1 wt.% in a machine dishwashing composition containing 4 wt.% epsilon-phthalimido peroxyhexanoic acid as the bleaching agent. The pH values of the compositions were adjusted by the addition of a 50% solution of sodium hydroxide or concentrated sulfuric acid, as necessary.
(§3) Copper plates and silver plates were held in each of the compositions for 25 minutes, removed, rinsed with deionized water and evaluated for tarnishing. […]
as §2, with “1,3-N azole” for “purine class”
as §3

physchem = format: physicochemical
Procedure: As used herein, the term "pKa" means a pH value at which 50% of the heterocyclic ring moieties of the compound (particularly the five-membered rings in the case of the purine class compounds) are in ionic form.
The pH of this solution was adjusted to 3.0 with H2SO4. The solution was then titrated with 1N NaOH to pH 11.0. A plot of mls. NaOH vs. pH for each sample was prepared. The pKa of the compound is that point where the maximum change in pH as a function of mls. NaOH is observed.

[4] = Example 11: 1,2,4-triazole 1.0%

- level of tarnishing relative to the case where no anti-tarnishing agent was present ([2]; Example 11: 1,2,4-triazole 1.0%, peracetic acid, epsilon-phthalimidoperoxyhexanoic acid or sodium hypochlorite, pH 7.5 to 10.5): reduced the level of tarnishing
- pKa of compounds (physchem; deionized water): 5.4
Structure (SMILES): c1nc[nH]n1 [1,2,4-triazole]
- level at which optimum performance was achieved ([1]; Example 12): 1 % by weight
- silver tarnishing, in words ([1]; Example 12, at amounts of 0.05 % by weight): effectively reduced silver tarnishing
- reduction of tarnishing [2, 4]: 1.5 units of tarnishing
- reduction in tarnishing [2, 4]: 3.0 units
- Effective Silver Anti-Tarnishing ([3]; Example 13: 1 wt.% compound, pH of composition 8.8): Yes (A tarnish score of 3 or less was considered effective as a silver anti-tarnishing compound)

- pKa (physchem): 5.5
Structure (SMILES): c1ncc2[nH]cnc2n1 [Purine]
- level of tarnishing relative to the samples which did not contain purine ([2]; Example 4: purine 1.0%, peracetic acid pH 7.5, epsilon-phthalimidoperoxy hexanoic acid pH 8.5, sodium hypochlorite pH 9.0 and 10.5): greatest at pH values of 7.5, 8.5 and 9.0
- Effective Silver Anti-Tarnishing ([3]; Example 5: 1 wt.% compound, pH of composition 8.6): Yes (A tarnish score of 3 or less was considered effective as a silver anti-tarnishing compound)

Structure (SMILES): O=c1[nH]c(=O)[nH]c(=O)[nH]1 [cyanuric acid, 1,3,5-triazine-2,4,6(1H,3H,5H)-trione]
- level which gives optimum anti-tarnish performance ([1]; Example 9): about 1%
- appearance of the monitors ([1]; Example 9, cyanuric acid at a 2.5% level): slightly yellow appearance
- reduction of tarnishing ([2]; Example 8: cyanuric acid 1.0%): 1.5 units of tarnishing
- reduction in tarnishing ([2]; Example 8: cyanuric acid 1.0%): 3.0 units
- level of tarnishing relative to the case where no anti-tarnish agent was present ([2]; Example 8: cyanuric acid 1.0%, peracetic acid, epsilon-phthalimidoperoxyhexanoic acid or sodium hypochlorite, pH 7.5 to 10.5): reduced the level of tarnishing

— patent EP0723577B1, “DETERGENT COMPOSITIONS CONTAINING SILVER ANTI-TARNISHING AGENTS” (UNILEVER N.V., priority 1993, dated 1995)
